Assay results reported in patent US7417041B2, “Imidazopyrimidines as transforming growth factor (TGF) inhibitors” (Pfizer Inc., priority 2003, dated 2008).

Target: T1, TβRI (Homo sapiens, UniProt P36897)
T1 construct: using either the kinase domain of ALK5 with Smad3 as substrate; GST
T1 sequence (P36897 205-495 limits assumed): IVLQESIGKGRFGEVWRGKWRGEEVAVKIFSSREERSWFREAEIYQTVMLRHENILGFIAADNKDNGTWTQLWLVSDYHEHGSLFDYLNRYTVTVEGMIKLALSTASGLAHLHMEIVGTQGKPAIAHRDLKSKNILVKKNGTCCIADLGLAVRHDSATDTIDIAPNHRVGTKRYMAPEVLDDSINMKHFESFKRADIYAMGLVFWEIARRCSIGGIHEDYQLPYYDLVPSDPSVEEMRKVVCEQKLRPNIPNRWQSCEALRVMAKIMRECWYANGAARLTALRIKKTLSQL
Test: ALK-5 (TβRI) kinase assay
Assay type: biochemical
Details: read-out: in vitro IC50 value against TβRI
Experimental: ALK-5 (TβRI) Kinase Assay Protocol
The kinase assays were performed with 65 nM GST-ALK5 and 84 nM GST-Smad3 in 50 mM HEPES, 5 mM MgCl2, 1 mM CaCl2, 1 mM dithiothreitol, and 3_M ATP. Reactions were incubated with 0.5_Ci of [33 P]ATP for 3 h at 30° C. Phosphorylated protein was captured on P-81 paper (Whatman, Maidstone, England), washed with 0.5% phosphoric acid, and counted by liquid scintillation. Alternatively, Smad3 or Smad1 protein was also coated onto FlashPlate Sterile Basic Microplates (PerkinElmer Life Sciences, Boston, Mass.). Kinase assays were then performed in Flash-Plates with same assay conditions using either the kinase domain of ALK5 with Smad3 as substrate or the kinase domain of ALK6 (BMP receptor) with Smad1 as substrate. Plates were washed three times with phosphate buffer and counted by TopCount (Packard Bio-science, Meriden, Conn.). (Laping, N. J. et al. Molecular Pharmacology 62:58-64 (2002)).

## Cc1cccc(-c2c(-c3ccc4nnn(C)c4c3)nc3ncccn23)n1 [Example 15, 1-Methyl-6-[3-(6-methyl-pyridin-2-yl)-imidazo[1,2-a]pyrimidin-2-yl]-1H-benzotriazole]
  IC50: 253 nM
